Reference: US12552788B2 (priority 2020, dated 2026)

Tested on: IFN β-production
Conditions: soluble, unformulated form
Procedure: (FIG. 3A) Bioluminescence images of luciferase reporter mice (IFβ+/Δβ-luc); images taken 4, 24 and 48 h post footpad injection of IMDQ-PEG-CHOL, IMDQ-PEG and native IMDQ.
In vivo immune activation imaging. Luciferase reporter mice (IFNβ+/Δβ-luc) with a BALB/c background, aged 7-9 weeks, were housed in individual ventilated cages and given ad libitum access to food and water. 20 mL of IMDQ-PEG-CHOL, IMDQ-PEG or IMDQ were injected subcutaneously in the footpad (n=3) at an equivalent INDQ dose of 2 mg. For in vivo imaging at the given time points, mice were injected subcutaneously with 200 μL D-luciferin and in vivo luminescence imaging was recorded 12 min later using the IVIS Lumina II imaging system. Local (DLN and DLN+foot pad) luminescence and full-body luminescence were quantified using the Living Image 4.4 software.

`CCCCc1nc2c(N)nc3ccccc3c2n1Cc1ccc(CN)cc1` [IMDQ, 1-(4-(aminomethyl)benzyl)-2-butyl-1H-imidazo[4,5-c]quinolin-4-amine] was tested, and the “entry into systemic circulation upon local administration” value was “rapidly enters systemic circulation”.
